Results as given in patent publication US9493468B2, “Antifungal 5,6-dihydro-4H-pyrrolo[1,2-a][1,4]benzo-diazepines and 6H-pyrrolo[1,2-a][1,4]benzodiazepines substituted with heterocyclic derivatives” (Janssen Pharmaceutica NV, priority 2011, dated 2016).

How the values were obtained:
Assay type in all cases: cell-based
Microsporum canis = test: Antifungal activity in vitro, resazurin growth inhibition: Microsporum canis (B68128)
Method in brief: (§1)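 Resazurin conversion to fluorescent resorufin (ex 550/em 590 nm) served as the growth readout. Compounds spanned 2- or 4-fold serial dilutions with 64 μM top in-test concentration; inoculum 10^3 cfu per well in MOPS-buffered RPMI-1640 (pH 7.0, 2% glucose). Incubation species-dependent, dermatophytes at 27° C. for ≥1 week.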

[1] = system: Trichophyton mentagrophytes; test: Antifungal activity in vitro, resazurin growth inhibition: Trichophyton mentagrophytes (B70554)
Method in brief: as §1

Trichophyton rubrum = test: Antifungal activity in vitro, resazurin growth inhibition: Trichophyton rubrum (B68183)
Method in brief: as §1

Scedosporium apiospermum = test: Antifungal activity in vitro, resazurin growth inhibition: Scedosporium apiospermum (IHEM3817)
Method in brief: (§2)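 Compound dilutions, with 64 μM as the highest in-test level, are spotted onto plates, then an inoculum of 10^3 cfu in RPMI-1640 plus 2% glucose (MOPS, pH 7.0±0.1) is added. Plates are incubated at species-dependent time and temperature, up to a week or more at 27° C. for dermatophytes.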

Scedosporium prolificans = test: Antifungal activity in vitro, resazurin growth inhibition: Scedosporium prolificans (IHEM21157)
Method in brief: as §2

Sporothrix schenkii = test: Antifungal activity in vitro, resazurin growth inhibition: Sporothrix schenkii (B62482)
Method in brief: as §2

Aspergillus fumigatus = test: Antifungal activity in vitro, resazurin growth inhibition: Aspergillus fumigatus (B42928)
Method in brief: as §2

Candida parapsilosis = test: Antifungal activity in vitro, resazurin growth inhibition: Candida parapsilosis (B66126)
Method in brief: as §2

Cryptococcus neoformans = test: Antifungal activity in vitro, resazurin growth inhibition: Cryptococcus neoformans (B66663)
Method in brief: as §2

Rhizopus oryzae = test: Antifungal activity in vitro, resazurin growth inhibition: Rhizopus oryzae (IHEM5223)
Method in brief: as §2

Rhizomucor miehei = test: Antifungal activity in vitro, resazurin growth inhibition: Rhizomucor miehei (IHEM13391)
Method in brief: as §2

Cc1cccc2c1CN=C(c1ccc3ncsc3c1)c1cccn1-2 [Compound 183]
Inf. B: Microsporum canis B68128, pIC50 (Microsporum canis): 5.85 | Inf. G: Trichophyton mentagrophytes B70554, pIC50 [1]: 5.99 | Inf. C: Trichophyton rubrum B68183, pIC50 (Trichophyton rubrum): 6.68 | Inf. H: Scedosporium apiospermum IHEM3817, pIC50 (Scedosporium apiospermum): <4.49 | Inf. I: Scedosporium prolificans IHEM21157, pIC50 (Scedosporium prolificans): 4.96 | Inf. A: Sporothrix schenkii B62482, pIC50 (Sporothrix schenkii): 4.77 | Inf. E: Aspergillus fumigatus B42928, pIC50 (Aspergillus fumigatus): 5.26 | Inf. D: Candida parapsilosis B66126, pIC50 (Candida parapsilosis): 5.31 | Inf. F: Cryptococcus neoformans B66663, pIC50 (Cryptococcus neoformans): 4.49 | Inf. J: Rhizopus oryzae IHEM5223, pIC50 (Rhizopus oryzae): <4.49 | Inf. K: Rhizomucor miehei IHEM13391, pIC50 (Rhizomucor miehei): <4.49

Clc1cccc2c1CN=C(c1ccc3ncsc3c1)c1cccn1-2 [Compound 184]
Inf. B: Microsporum canis B68128, pIC50 (Microsporum canis): 6.70 | Inf. G: Trichophyton mentagrophytes B70554, pIC50 [1]: 6.51 | Inf. C: Trichophyton rubrum B68183, pIC50 (Trichophyton rubrum): 7.32 | Inf. H: Scedosporium apiospermum IHEM3817, pIC50 (Scedosporium apiospermum): <4.19 | Inf. I: Scedosporium prolificans IHEM21157, pIC50 (Scedosporium prolificans): 6.15 | Inf. A: Sporothrix schenkii B62482, pIC50 (Sporothrix schenkii): <4.19 | Inf. E: Aspergillus fumigatus B42928, pIC50 (Aspergillus fumigatus): 6.27 | Inf. D: Candida parapsilosis B66126, pIC50 (Candida parapsilosis): <4.19 | Inf. F: Cryptococcus neoformans B66663, pIC50 (Cryptococcus neoformans): <4.19 | Inf. J: Rhizopus oryzae IHEM5223, pIC50 (Rhizopus oryzae): <4.19 | Inf. K: Rhizomucor miehei IHEM13391, pIC50 (Rhizomucor miehei): <4.19

Clc1ccc2c(c1)-n1cccc1C(c1ccc3ncsc3c1)=NC2 [Compound 185]
Inf. B: Microsporum canis B68128, pIC50 (Microsporum canis): 6.39 | Inf. G: Trichophyton mentagrophytes B70554, pIC50 [1]: 6.04 | Inf. C: Trichophyton rubrum B68183, pIC50 (Trichophyton rubrum): 6.73 | Inf. H: Scedosporium apiospermum IHEM3817, pIC50 (Scedosporium apiospermum): 4.41 | Inf. I: Scedosporium prolificans IHEM21157, pIC50 (Scedosporium prolificans): 5.16 | Inf. A: Sporothrix schenkii B62482, pIC50 (Sporothrix schenkii): 5.28 | Inf. E: Aspergillus fumigatus B42928, pIC50 (Aspergillus fumigatus): 6.29 | Inf. D: Candida parapsilosis B66126, pIC50 (Candida parapsilosis): 4.23 | Inf. F: Cryptococcus neoformans B66663, pIC50 (Cryptococcus neoformans): 6.33 | Inf. J: Rhizopus oryzae IHEM5223, pIC50 (Rhizopus oryzae): <4.19 | Inf. K: Rhizomucor miehei IHEM13391, pIC50 (Rhizomucor miehei): <4.19

Clc1cccc2c1-n1cccc1C(c1ccc3ncsc3c1)=NC2 [Compound 186]
Inf. B: Microsporum canis B68128, pIC50 (Microsporum canis): 5.95 | Inf. G: Trichophyton mentagrophytes B70554, pIC50 [1]: 6.06 | Inf. C: Trichophyton rubrum B68183, pIC50 (Trichophyton rubrum): 6.34 | Inf. H: Scedosporium apiospermum IHEM3817, pIC50 (Scedosporium apiospermum): 4.78 | Inf. I: Scedosporium prolificans IHEM21157, pIC50 (Scedosporium prolificans): 5.40 | Inf. A: Sporothrix schenkii B62482, pIC50 (Sporothrix schenkii): 5.15 | Inf. E: Aspergillus fumigatus B42928, pIC50 (Aspergillus fumigatus): 5.63 | Inf. D: Candida parapsilosis B66126, pIC50 (Candida parapsilosis): <4.19 | Inf. F: Cryptococcus neoformans B66663, pIC50 (Cryptococcus neoformans): 5.69 | Inf. J: Rhizopus oryzae IHEM5223, pIC50 (Rhizopus oryzae): <4.19 | Inf. K: Rhizomucor miehei IHEM13391, pIC50 (Rhizomucor miehei): 4.35

Clc1cc(Cl)c2c(c1)-n1cccc1C(c1ccc3ncsc3c1)=NC2 [Compound 187]
Inf. B: Microsporum canis B68128, pIC50 (Microsporum canis): 5.68 | Inf. G: Trichophyton mentagrophytes B70554, pIC50 [1]: 6.22 | Inf. C: Trichophyton rubrum B68183, pIC50 (Trichophyton rubrum): 6.77 | Inf. H: Scedosporium apiospermum IHEM3817, pIC50 (Scedosporium apiospermum): 5.79 | Inf. I: Scedosporium prolificans IHEM21157, pIC50 (Scedosporium prolificans): 6.92 | Inf. A: Sporothrix schenkii B62482, pIC50 (Sporothrix schenkii): 5.09 | Inf. E: Aspergillus fumigatus B42928, pIC50 (Aspergillus fumigatus): 5.98 | Inf. D: Candida parapsilosis B66126, pIC50 (Candida parapsilosis): 4.50 | Inf. F: Cryptococcus neoformans B66663, pIC50 (Cryptococcus neoformans): 5.46 | Inf. J: Rhizopus oryzae IHEM5223, pIC50 (Rhizopus oryzae): <4.19 | Inf. K: Rhizomucor miehei IHEM13391, pIC50 (Rhizomucor miehei): <4.19

Clc1cccc2c1CN=C(c1ccc3scnc3c1)c1cccn1-2 [Compound 188]
Inf. B: Microsporum canis B68128, pIC50 (Microsporum canis): 6.20 | Inf. G: Trichophyton mentagrophytes B70554, pIC50 [1]: 6.05 | Inf. C: Trichophyton rubrum B68183, pIC50 (Trichophyton rubrum): 6.64 | Inf. H: Scedosporium apiospermum IHEM3817, pIC50 (Scedosporium apiospermum): 6.29 | Inf. I: Scedosporium prolificans IHEM21157, pIC50 (Scedosporium prolificans): 6.24 | Inf. A: Sporothrix schenkii B62482, pIC50 (Sporothrix schenkii): <4.19 | Inf. E: Aspergillus fumigatus B42928, pIC50 (Aspergillus fumigatus): 5.56 | Inf. D: Candida parapsilosis B66126, pIC50 (Candida parapsilosis): 4.90 | Inf. F: Cryptococcus neoformans B66663, pIC50 (Cryptococcus neoformans): 4.98 | Inf. J: Rhizopus oryzae IHEM5223, pIC50 (Rhizopus oryzae): <4.19 | Inf. K: Rhizomucor miehei IHEM13391, pIC50 (Rhizomucor miehei): 4.42

Cc1nc2cc(C3=NCc4c(Cl)cccc4-n4cccc43)ccc2s1 [Compound 191]
Inf. B: Microsporum canis B68128, pIC50 (Microsporum canis): 5.69 | Inf. G: Trichophyton mentagrophytes B70554, pIC50 [1]: 5.80 | Inf. C: Trichophyton rubrum B68183, pIC50 (Trichophyton rubrum): 6.18 | Inf. H: Scedosporium apiospermum IHEM3817, pIC50 (Scedosporium apiospermum): 4.88 | Inf. I: Scedosporium prolificans IHEM21157, pIC50 (Scedosporium prolificans): 6.35 | Inf. A: Sporothrix schenkii B62482, pIC50 (Sporothrix schenkii): 4.75 | Inf. E: Aspergillus fumigatus B42928, pIC50 (Aspergillus fumigatus): 5.42 | Inf. D: Candida parapsilosis B66126, pIC50 (Candida parapsilosis): <4.19 | Inf. F: Cryptococcus neoformans B66663, pIC50 (Cryptococcus neoformans): 5.00 | Inf. J: Rhizopus oryzae IHEM5223, pIC50 (Rhizopus oryzae): <4.19 | Inf. K: Rhizomucor miehei IHEM13391, pIC50 (Rhizomucor miehei): <4.19

Cn1ccc2ccc(C3=NCc4c(Cl)cccc4-n4cccc43)cc21 [Compound 196]
Inf. B: Microsporum canis B68128, pIC50 (Microsporum canis): 6.36 | Inf. G: Trichophyton mentagrophytes B70554, pIC50 [1]: 6.17 | Inf. C: Trichophyton rubrum B68183, pIC50 (Trichophyton rubrum): 6.77 | Inf. H: Scedosporium apiospermum IHEM3817, pIC50 (Scedosporium apiospermum): 4.35 | Inf. I: Scedosporium prolificans IHEM21157, pIC50 (Scedosporium prolificans): 5.72 | Inf. A: Sporothrix schenkii B62482, pIC50 (Sporothrix schenkii): 5.00 | Inf. E: Aspergillus fumigatus B42928, pIC50 (Aspergillus fumigatus): 5.65 | Inf. D: Candida parapsilosis B66126, pIC50 (Candida parapsilosis): 5.25 | Inf. F: Cryptococcus neoformans B66663, pIC50 (Cryptococcus neoformans): 5.84 | Inf. J: Rhizopus oryzae IHEM5223, pIC50 (Rhizopus oryzae): <4.19 | Inf. K: Rhizomucor miehei IHEM13391, pIC50 (Rhizomucor miehei): <4.19
